Values of other authors as cited in US20240189475A1 (PUKYONG NATIONAL UNIVERSITY INDUSTRY-UNIVERSITY COOPERATION …, priority 2022, published 2024).

Conditions: background statement

In the case of `CC(=O)c1c(O)c(C)c(O)c2c1OC1=CC(=O)C(C(C)=O)C(=O)C12C` (stereo not shown) [UA, usnic acid], the solubility in water is listed as “low solubility in water”.
